ChEMBL document CHEMBL4418499, “Inhibitors of trim33 and methods of use” (2018)

What was measured:
[1] = molecular target: T1, E3 ubiquitin-protein ligase TRIM33 (Homo sapiens, UniProt Q9UPN9); assay: Inhibition of recombinant TRIM33 PHD bromodomain (unknown origin) using biotinylated H3 peptide (H3K9me3K18ac) by AlphaScreen assay
T1 sequence (Q9UPN9 whole entry): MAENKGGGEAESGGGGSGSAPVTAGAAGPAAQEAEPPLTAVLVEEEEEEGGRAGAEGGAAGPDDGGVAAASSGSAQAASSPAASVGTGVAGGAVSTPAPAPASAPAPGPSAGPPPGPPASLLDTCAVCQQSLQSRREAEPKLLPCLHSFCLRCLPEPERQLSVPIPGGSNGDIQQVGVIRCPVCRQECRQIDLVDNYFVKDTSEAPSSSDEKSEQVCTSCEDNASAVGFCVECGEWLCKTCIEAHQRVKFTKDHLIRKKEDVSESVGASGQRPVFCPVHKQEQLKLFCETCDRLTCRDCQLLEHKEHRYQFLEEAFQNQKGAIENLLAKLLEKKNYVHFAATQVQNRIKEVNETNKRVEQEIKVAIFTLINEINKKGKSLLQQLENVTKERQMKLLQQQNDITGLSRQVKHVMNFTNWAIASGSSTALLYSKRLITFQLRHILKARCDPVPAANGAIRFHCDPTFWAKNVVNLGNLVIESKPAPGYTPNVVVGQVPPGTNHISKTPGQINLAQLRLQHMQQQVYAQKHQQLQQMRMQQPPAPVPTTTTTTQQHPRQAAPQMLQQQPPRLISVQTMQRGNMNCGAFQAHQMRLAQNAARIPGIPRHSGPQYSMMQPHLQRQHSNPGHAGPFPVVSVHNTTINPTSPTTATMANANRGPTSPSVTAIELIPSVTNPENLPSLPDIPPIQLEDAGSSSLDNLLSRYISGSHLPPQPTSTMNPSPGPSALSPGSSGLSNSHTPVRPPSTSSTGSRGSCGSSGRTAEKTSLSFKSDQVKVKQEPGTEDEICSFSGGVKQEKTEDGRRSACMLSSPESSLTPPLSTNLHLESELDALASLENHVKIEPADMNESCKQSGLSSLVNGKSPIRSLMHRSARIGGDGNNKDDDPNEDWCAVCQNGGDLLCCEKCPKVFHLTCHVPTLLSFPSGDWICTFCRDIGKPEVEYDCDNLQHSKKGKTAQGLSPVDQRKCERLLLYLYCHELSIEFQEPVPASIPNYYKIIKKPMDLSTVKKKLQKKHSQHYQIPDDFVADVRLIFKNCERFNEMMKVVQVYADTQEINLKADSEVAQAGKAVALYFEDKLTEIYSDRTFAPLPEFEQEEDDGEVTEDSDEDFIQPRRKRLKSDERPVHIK

[2] = molecular target: T2, Transcription intermediary factor 1-alpha (Homo sapiens, UniProt O15164); assay: Inhibition of recombinant TRIM24 (unknown origin) using biotinylated H3 peptide (H3K9me3K18ac) by AlphaScreen assay
T2 sequence (O15164 whole entry): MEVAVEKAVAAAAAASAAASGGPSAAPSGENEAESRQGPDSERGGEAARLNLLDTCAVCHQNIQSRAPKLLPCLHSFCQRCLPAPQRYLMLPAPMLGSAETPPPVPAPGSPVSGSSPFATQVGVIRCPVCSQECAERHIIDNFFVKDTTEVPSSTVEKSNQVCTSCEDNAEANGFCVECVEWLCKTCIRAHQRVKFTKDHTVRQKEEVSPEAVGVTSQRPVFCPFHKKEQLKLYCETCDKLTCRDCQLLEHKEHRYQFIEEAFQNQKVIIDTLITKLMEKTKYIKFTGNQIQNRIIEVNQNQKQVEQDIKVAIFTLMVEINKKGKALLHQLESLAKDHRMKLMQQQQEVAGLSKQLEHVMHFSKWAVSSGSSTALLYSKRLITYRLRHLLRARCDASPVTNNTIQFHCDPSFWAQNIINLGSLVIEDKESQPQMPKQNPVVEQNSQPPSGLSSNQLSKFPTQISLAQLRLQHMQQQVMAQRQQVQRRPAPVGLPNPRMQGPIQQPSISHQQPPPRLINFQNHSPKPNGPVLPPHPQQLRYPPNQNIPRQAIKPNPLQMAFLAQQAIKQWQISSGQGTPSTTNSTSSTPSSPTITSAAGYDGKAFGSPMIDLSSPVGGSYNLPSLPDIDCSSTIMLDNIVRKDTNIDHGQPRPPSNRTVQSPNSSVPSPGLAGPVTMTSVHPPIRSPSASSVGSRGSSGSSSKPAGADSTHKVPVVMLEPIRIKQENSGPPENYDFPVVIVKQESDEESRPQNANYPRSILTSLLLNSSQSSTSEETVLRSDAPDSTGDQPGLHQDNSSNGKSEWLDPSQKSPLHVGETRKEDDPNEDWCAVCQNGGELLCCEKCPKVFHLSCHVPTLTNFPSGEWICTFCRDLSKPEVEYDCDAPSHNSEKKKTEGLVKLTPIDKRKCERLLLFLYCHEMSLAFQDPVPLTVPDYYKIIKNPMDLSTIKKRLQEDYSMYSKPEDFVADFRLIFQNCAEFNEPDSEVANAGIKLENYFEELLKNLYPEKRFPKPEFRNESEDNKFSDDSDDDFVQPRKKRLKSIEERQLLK

[3] = species: Homo sapiens; assay: Selectivity index, ratio of IC50 for recombinant TRIM24 (unknown origin) to IC50 for recombinant TRIM33 PHD bromodomain (unknown origin)

| Compound | IC50 [1] [µM] | IC50 [2] [µM] | Ratio IC50 [3] |
| --- | --- | --- | --- |
| O=Cc1cccnc1Br | 5.48 | 7.86 | – |
| CCCOc1ccn2c(C(C)=O)cc(-c3nc4ccccn4c3NCc3ccc(C#N)cc3)c2c1 | 46.3 | – | – |
| Cc1[nH]cnc1-c1nc2ccc(Br)cn2c1NCCN1CCOCC1 | – | 117 | – |
| N#Cc1ccc(CNc2c(-c3ccc4nccn4c3)nc3cnccn23)cc1 | 46.1 | 818 | 17.7 |
| CCCOc1ccn2c(C(C)=O)cc(-c3nc4ccc(C(=O)OC)cn4c3NCCN3CCOCC3)c2c1 | 95.6 | 1040 | 10.9 |
| COCCNc1c(-c2ccc3nccn3c2)nc2ccccn12 | 139 | 5800 | 41.7 |
| Cc1nc[nH]c1-c1nc2cnccn2c1NC1CCCCC1 | – | 90.1 | – |
| COc1ccc(Nc2c(-c3c[nH]c(C)n3)nc3ccccn23)cc1 | 0.00319 | 1.71 | 538 |
| Cc1nc(-c2nc3ccc(Br)cn3c2NC2CCCCC2)c[nH]1 | 3.6 | 13 | 3.62 |
| CCCOc1ccn2c(C(C)=O)cc(-c3nc4ccccn4c3NCCc3ccc(OC)c(OC)c3)c2c1 | 21.7 | 372 | 17.1 |
| c1ccn2c(NCCN3CCOCC3)c(-c3ccc4nccn4c3)nc2c1 | 366 | – | 48.4 |
| COCCNc1c(-c2nc[nH]c2C)nc2ccc(Br)cn12 | – | 134 | – |
| COCCNc1c(-c2ccc3nccn3c2)nc2ccc(Br)cn12 | 156 | 706 | 4.53 |
| CCCOc1ccn2c(C(C)=O)cc(-c3nc4cnccn4c3NC3CCCCC3)c2c1 | 80 | – | – |
| O=Cc1cccc(-c2ccc(C(=O)O)cc2)c1 | 0.336 | 0.165 | – |
| COc1ccc(C=O)c(O)c1 | 0.301 | 0.22 | – |
| COC(=O)c1ccc2nc(-c3ccc4nccn4c3)c(NCc3ccc(C#N)cc3)n2c1 | 125 | – | 486 |
| Cc1[nH]cnc1-c1nc2ccc(Br)cn2c1NC1CCCCC1 | 1.03 | 8.48 | 8.27 |
| Cc1nc(-c2nc3cnccn3c2NC2CCCCC2)c[nH]1 | 415 | 186 | – |
| COC(=O)c1ccc2nc(-c3c[nH]c(C)n3)c(Nc3ccc(OC)cc3)n2c1 | 8.57 | 111 | 13 |
| Cc1[nH]cnc1-c1nc2cnccn2c1NCCN1CCOCC1 | 71 | 119 | 1.67 |

| Compound | IC50 [1] [µM] | IC50 [2] [µM] | Ratio IC50 [3] |
| --- | --- | --- | --- |
| COCCNc1c(-c2nc[nH]c2C)nc2cnccn12 | 204 | – | 115 |
| Cc1nc(-c2nc3ccccn3c2NCCN2CCOCC2)c[nH]1 | 27.8 | 242 | 8.73 |
| Brc1ccc2nc(-c3ccc4nccn4c3)c(NCCN3CCOCC3)n2c1 | – | 1380 | – |
| Cc1nc(-c2nc3ccc(Br)cn3c2NCc2ccc(C#N)cc2)c[nH]1 | 11.3 | 81.7 | 7.21 |
| COCCNc1c(-c2c[nH]c(C)n2)nc2ccc(Br)cn12 | 7.88 | 243 | 30.8 |
| COc1ccc(Nc2c(-c3ccc4nccn4c3)nc3cnccn23)cc1 | 38.3 | 88.3 | 2.3 |
| COc1ccc(Nc2c(-c3c[nH]c(C)n3)nc3cnccn23)cc1 | 153 | 385 | – |
| Cc1[nH]cnc1-c1nc2ccccn2c1NCCN1CCOCC1 | – | – | 13.3 |
| O=Cc1ccccc1O | 0.299 | 0.221 | – |
| Cc1nc[nH]c1-c1nc2ccccn2c1NC1CCCCC1 | 1.07 | 9.03 | – |
| CCCOc1ccn2c(C(C)=O)cc(-c3nc4ccc(C(=O)OC)cn4c3NC3CCCCC3)c2c1 | – | 255 | – |
| COCCNc1c(-c2c[nH]c(C)n2)nc2ccc(C(=O)OC)cn12 | 10.5 to 56.9 | 4.07 | – |
| Cc1[nH]cnc1-c1nc2ccccn2c1NC1CCCCC1 | – | – | 8.45 |
| CCCOc1ccn2c(C(C)=O)cc(-c3nc4ccc(C(=O)OC)cn4c3NCCc3ccc(OC)c(OC)c3)c2c1 | – | 5650 | – |
| Cn1cccc1C=O | 0.305 | 0.18 | – |
| COC(=O)c1ccc2nc(-c3ccc4nccn4c3)c(NCCN3CCOCC3)n2c1 | 303 | 700 | – |
| Cc1cccc2c(C=O)c[nH]c12 | 0.24 | 0.157 | – |
| CCCOc1ccn2c(C(C)=O)cc(-c3nc4cnccn4c3NCCOC)c2c1 | – | 2850 | – |
| COc1ccc(Nc2c(-c3nc[nH]c3C)nc3ccccn23)cc1 | – | – | 5.35 |
| Brc1ccc2nc(-c3ccc4nccn4c3)c(NC3CCCCC3)n2c1 | – | 100 | – |
| O=C1CCCC1 [CYCLOPENTANONE] | 0.234 | 0.136 | – |

| Compound | IC50 [1] [µM] | IC50 [2] [µM] | Ratio IC50 [3] |
| --- | --- | --- | --- |
| COc1ccc(CCNc2c(-c3c[nH]c(C)n3)nc3ccc(Br)cn23)cc1OC | – | 63.5 | – |
| COc1ccc(CCNc2c(-c3c[nH]c(C)n3)nc3ccccn23)cc1OC | – | 44.4 | – |
| COC(=O)c1ccc2nc(-c3nc[nH]c3C)c(NCCc3ccc(OC)c(OC)c3)n2c1 | – | 377 | – |
| COC(=O)c1ccc2nc(-c3ccc4nccn4c3)c(NC3CCCCC3)n2c1 | 42.6 | 502 | – |
| O=Cc1ccc(N2CCCC2)cc1 | 0.269 | 0.133 | – |
| COc1ccc(CCNc2c(-c3ccc4nccn4c3)nc3cnccn23)cc1OC | 29.7 | – | 1.9 |
| COC(=O)c1ccc2nc(-c3c[nH]c(C)n3)c(NCc3ccc(C#N)cc3)n2c1 | 650 | – | – |
| Cc1ncc(CO)c(C=O)c1O | 0.283 | 0.225 | – |
| CCCOc1ccn2c(C(C)=O)cc(-c3nc4ccc(C(=O)OC)cn4c3NCCOC)c2c1 | – | 2880 | – |
| c1cn2c(NC3CCCCC3)c(-c3ccc4nccn4c3)nc2cn1 | 169 | 320 | – |
| COc1ccc(CCNc2c(-c3nc[nH]c3C)nc3ccc(Br)cn23)cc1OC | – | 28.9 | – |
| COc1ccc(Nc2c(-c3[nH]cnc3C)nc3ccc(Br)cn23)cc1 | 0.0137 | 2.59 | – |
| COC(=O)c1ccc2nc(-c3nc[nH]c3C)c(NCCN3CCOCC3)n2c1 | – | – | 11.8 |
| O=C1CCCCCCC1 [CYCLOOCTANONE] | 0.25 | 0.166 | – |
| COCCNc1c(-c2nc[nH]c2C)nc2ccc(C(=O)OC)cn12 | – | 511 | – |
| COc1ccc(Nc2c(-c3nc[nH]c3C)nc3ccc(Br)cn23)cc1 | – | – | 189 |
| COc1ccc(CCNc2c(-c3ccc4nccn4c3)nc3ccccn23)cc1OC | – | 1510 | – |
| CCCOc1ccn2c(C(C)=O)cc(-c3nc4ccc(C(=O)OC)cn4c3NCc3ccc(C#N)cc3)c2c1 | 65.1 | – | 515 |
| COc1cc(C=O)ccc1O [VANILLIN] | 0.326 | 0.162 | – |
| COC(=O)c1ccc2nc(-c3nc[nH]c3C)c(NC3CCCCC3)n2c1 | – | 143 | – |
